In one assay the target is T1, 5HT1A receptor (Rattus norvegicus, UniProt P19327).
T1 construct: Membrane fragments were prepared from prefrontal cortex; from tissue; host or cells: prefrontal/frontal cortex of female rats (about 150 g), membrane fragments
T1 sequence (P19327 1-422): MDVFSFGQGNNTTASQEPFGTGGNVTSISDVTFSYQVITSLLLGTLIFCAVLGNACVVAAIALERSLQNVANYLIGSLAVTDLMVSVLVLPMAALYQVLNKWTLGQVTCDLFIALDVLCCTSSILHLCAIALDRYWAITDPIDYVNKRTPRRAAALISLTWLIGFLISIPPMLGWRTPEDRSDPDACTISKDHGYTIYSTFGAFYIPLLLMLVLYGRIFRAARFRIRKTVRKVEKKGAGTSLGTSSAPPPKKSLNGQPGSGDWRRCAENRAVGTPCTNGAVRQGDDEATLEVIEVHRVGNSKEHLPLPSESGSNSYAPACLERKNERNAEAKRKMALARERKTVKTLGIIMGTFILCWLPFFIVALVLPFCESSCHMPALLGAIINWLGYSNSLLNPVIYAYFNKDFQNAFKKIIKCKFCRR
Nature of the assay: Brain Serotonin (5HT1A) radioreceptor Assay (3H-8-OH DPAT displacement, rat frontal cortex membranes). Type of assay: binding. As to conditions: 3H-8-OH DPAT. As to the method:
Brain Serotonin (5HT1A) radioreceptor Assay
The text objects of this procedure were rat frontal cortex membranes. Membrane fragments were prepared from prefrontal cortex disected from brains obtained from female rats (≈150 g). The 5HT1A sites were labeled with ^3 H-8-OH dipropylaminotetralin (8-OH-DPAT). Membrane fragments, ^3 H-8-OH DPAT, TRIS buffer (pH 7.4) and unlabeled compound were incubated for 10 minutes at 37° C. and then for 10 minutes at 4° C. Separation of bound from unbound ^3 H-8-OH DPAT was performed by vacuum filtration on a glass fiber disc. The ability of a compound to compete with ^3 H-8-OH DPAT for binding sites is a measure of the affinity of the compound for the 5HT1A receptor. Specific binding was determined by the difference between total counts bound and the counts bound in the presence of […] 5-hydroxytryptamine.

Assay [1] has as its system alpha1 adrenergic receptor. Description: Alpha1 Blockade in vivo (inhibition of phenylephrine pressor response). On the set-up: species or system spontaneously hypertensive rats (SHR). As to conditions: anesthetized, vagotomized SHR; i.v. On the procedure: The potency of these compounds as alpha1 adrenergic antagonists was determined using the following procedure: adult male spontaneously hypertensive rats (SHR) were anesthetized and bilaterally vagotomized. A carotid artery and jugular vein were cannulated for monitoring mean arterial blood pressure and drug administration, respectively. The percent inhibition of alpha1 adrenergic receptor activation was quantified by measuring pressor responses to phenylephrine before and after antagonist treatment. […] Compounds were tested to the limits of their solubility for intravenous administration.

The test system of a further assay is serotonin receptors. Nature of the assay: Inhibition of 5-HTP-Induced Head Twitching. The class given is in vivo. Particulars: male CD1 mice; for Inhibit. of 5-HTP-Head Twitch ED50: 5-HTP 160 mg/kg i.v. after one hour. On the procedure: Inhibition of 5-HTP-Induced Head Twitching
This test detects compounds with antagonistic activity of serotonin receptors in vivo, and is a modified procedure of Corne, Pickering and Warner, Brit. J. Pharmacol. 20, 106 (1963). Groups of male CD1 mice were fasted overnight but allowed water ad libitum. They were deprived of water during the course of the experiment. The mice were weighed and treated orally or parenterally with the test compound in a dose volume of 10 ml/kg. Doses of test substance were calculated based upon the active compound. Substances for oral administration were dissolved or suspended in a 0.5% aqueous methylcellulose (15 centipoises) vehicle containing 4 ml of Tween 80/l.
A dose of 160 mg/kg of L-5-hydroxytryptophan (5-HTP) was administered i.v. in a dose volume of 5 ml/kg after one hour. The test mouse was restrained in a rodent restrainer that allowed the tail to extend out the back. The tail was then placed in tepid (but not scalding) water for approximately 10 seconds to soften the skin and dilate the tail vein. A 1 ml syringe and 25 gauge (5/8 inch) needle was used to administer the 5-HTP solution into one of the lateral tail veins.
A timer was started after dosing with 5-HTP to the first animal of the test group. […] A head twitch involves the head, neck and ears and has the appearance of an exaggerated pinal reflex. The number of head twitches for each individual vehicle-treated mouse were recorded to establish a historical baseline.
The active compounds in the test block the twitch response (the response rated all or none).

For assay [2], the target named is T2, 5HT2 (Rattus norvegicus, UniProt P14842). Nature of the assay: Brain Serotonin (5-HT2) Radioreceptor Assay (3H-ketanserin displacement, rat frontal cortex membranes). On the set-up: dissected from brains obtained from female rats; from tissue; host or cells: frontal cortex of female rats (about 150 g), membrane fragments. As to conditions: 15 min at 37° C. Type of assay: binding. As to the method: Brain Serotonin (5-HT2) Radioreceptor Assay
The test objects of this Example were rat frontal cortex membranes. Mebrane fragments were prepared from the frontal cortex dissected from brains obtained from female rats (≈150 g). […] Compound bound to the receptor site was separated from the remaining unbound compound by vacuum filtration. […] Specific binding was determined by the difference between total counts bound and counts bound in the presence of 10^-6 M methysergide.

Assay [3] has as its target T2, 5HT2. Nature of the assay: 5HT2 Blockade in vivo (antagonism of 5HT induced pressor responses). On the set-up: Spontaneously hypertensive rats were anesthetized with sodium pentobarbital; from tissue; host or cells: whole animal: anesthetized spontaneously hypertensive rats (vasculature); species or system spontaneously hypertensive rats. Particulars: for ED50: rat, iv, read-out: 5-HT-Induced Pressor Response ED50. On the procedure: Antagonism of 5HT induced pressor responses was used to assess 5HT2 blockade in vivo. Spontaneously hypertensive rats were anesthetized with sodium pentobarbital (50 mg/kg, i.p.). The right carotid artery and vein were cannulated for pressure recording and drug injection, respectively. The trachea was cannulated, the rat placed on a respirator and ventilated with room air at 50-60 breaths/minute. Rats were pretreated with prazosin hydrochloride (1 mg/kg, i.v., blous) and pentolinium tartrate (5 mg/kg, i.v., bolus). After 10 minutes equilibration, the rat was challenged with 5HT (100 μg/kg) which elevates mean arterial pressure (MAP) 60-100 mmHg; non-responsive rats were discarded.
After a baseline had been reestablished, bolus injections of 5HT (100 μg/kg, i.v.) were given and the MAP responses were evaluated both pre- and post-drug administration. 5HT challenges were repeated 10 minutes after each dose of antagonist. Up to three cumulative doses of the antagonist were given to a single animal.

Assay [4] relates to Serotonin-Induced Smooth Muscle Contractions (rabbit thoracic aorta). Nature of the assay: Inhibition of Serotonin-Induced Smooth Muscle Contractions (isolated thoracic aorta strips). Type of assay: cell-based. As to conditions: concentration shifting the serotonin dose curve 10x to the right, 10 min preincubation, read-out: 5-HT-Induced Smooth Muscle Contraction DR10. On the procedure: Inhibition of Serotonin-Induced Smooth Muscle Contractions
The test objects of this Example were canines and rabbits. Rabbits were sacrificed by T-61 injection and the thoracic aorta was removed immediately. The aorta was placed in warmed, oxygenated Krebs-Henseleit buffer. After the tissue was cleaned, a 2-3 mm wide strip was cut helically from each aorta. A strip of approximately 5 cm was suspended in Krebs-Henseleit buffer at 37° C. in a 25 ml tissue bath and the tissues equilibrated at an initial resting tension of 4 g for 90-120 minutes. An initial serotonin dose curve, 0.01-10 μM was then done on each tissue, followed by a 60 minute washout and reequilibration. The test drug was then added for a 10 minute preincubation and another serotonin dose curve was done using 0.01-100 μM.
Results are expressed as DR10 values. This is the concentration of the compound required to shift the serotonin dose curve 10x to the right, i.e., the concentration of antagonist at which the concentration of serotonin required for 50% maximal contraction is increased ten-fold.

The subject of assay [5] is serotonin-induced platelet aggregation. Description: Platelet Aggregation Assay (serotonin-induced). Type of assay: cell-based. Particulars: human plasma, serotonin 5 μM. As to the method:
Platelet Aggegation Assay
Human blood was collected into tubes containing sodium citrate. The plasma was separated by centrifugation and was used as the source of platelets. Serotonin (5 μM) was used as the agonist to induce platelet aggregation. A control aggregation curve (as measured by the decrease in absorbance in transmitted light) was obtained in the presence of serotonin and in the absence of test compound. The test compound was added to an identical sample in a cuvette for one minute before addition of serotonin to yield the experimental curve.

The mark [6] stands for this setting: read-out: Brain 5-HT1 Receptor % displaced (% inhibition).

The structures appear in SMILES notation. Like-named read-outs stand apart in the source and are kept apart here.

T2 sequence (P14842 whole entry, the tested form may be a part): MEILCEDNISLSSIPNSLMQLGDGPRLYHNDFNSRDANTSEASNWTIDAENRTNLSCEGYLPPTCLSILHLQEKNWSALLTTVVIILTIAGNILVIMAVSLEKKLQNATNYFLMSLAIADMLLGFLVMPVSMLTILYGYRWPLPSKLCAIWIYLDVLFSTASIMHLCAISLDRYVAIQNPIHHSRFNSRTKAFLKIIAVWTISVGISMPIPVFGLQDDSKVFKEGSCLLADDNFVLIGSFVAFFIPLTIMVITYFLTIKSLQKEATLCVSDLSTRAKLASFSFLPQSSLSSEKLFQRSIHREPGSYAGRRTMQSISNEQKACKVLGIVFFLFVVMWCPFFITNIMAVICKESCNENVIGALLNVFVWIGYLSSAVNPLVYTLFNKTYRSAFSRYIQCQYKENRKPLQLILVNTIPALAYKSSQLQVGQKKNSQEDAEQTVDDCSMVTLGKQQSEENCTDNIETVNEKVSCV

On to `O=C(c1ccc(F)cc1)C1CCN(CCn2c(=O)[nH]c3sccc3c2=O)CC1` [Example 2, 3-[2-[4-(4-Fluorobenzoyl)piperidin-1-yl]ethyl]thieno[2,3-d]pyrimidine-2,4-dione], for which the inhibition at 10 µM at 5HT1A receptor (@ 10 μM, read-out: Brain 5-HT1 Receptor % displaced (% inhibition)) amounted to 24%. Moreover, in assay [1], the “Phenylephrine-Induced Pressor Response ED50” value is recorded as under 3.0 mg/kg. Further, the “Inhibit. of 5-HTP-Head Twitch ED50” value in the assay with serotonin receptors was 0.26 mg/kg, p.o. At 5HT2 [2], this compound had an IC50 of 0.0016 µM. Further, at 5HT2 [3], the 50% effective dose (ED50) was determined as 0.016 mg/kg.

Regarding `O=c1[nH]c2cscc2c(=O)n1CCN1CCC(=C(c2ccc(F)cc2)c2ccc(F)cc2)CC1` [Example 4, 3-[2-[4-[Bis(4-fluorophenyl)methylene]piperidin-1-yl]ethyl]thieno[3,4-d]pyrimidine-2,4-dione], the inhibition at 1 µM on 5HT1A receptor (setting [6]) stood at 20%. The IC (10-fold shift) in assay [4] (Oryctolagus cuniculus, 10 min) turned out to be 0.0165 µM. Further, the IC50 is 5.3 µM in assay [5] (Platelet) and 0.0028 µM at 5HT2 [2]. In addition, the “Phenylephrine-Induced Pressor Response ED50” value in assay [1] was over 10 mg/kg. Also, the “Inhibit. of 5-HTP-Head Twitch ED50” value in the assay on serotonin receptors is “≈ 10 mg/kg, p.o”. Also, on 5HT2 [3], the ED50 worked out at 0.16 mg/kg.

For `O=c1[nH]c2ccsc2c(=O)n1CCN1CCC(=C(c2ccc(F)cc2)c2ccc(F)cc2)CC1` [Example 5, 3-[2-[4-[Bis(4-fluorophenyl)methylene]piperidin-1-yl]ethyl]thieno[3,2-d]pyrimidine-2,4-dione], the inhibition at 1 µM on 5HT1A receptor (setting [6]) was 3%. For the same compound, in assay [4] (Oryctolagus cuniculus, 10 min), the IC (10-fold shift) came to 0.1 µM. Besides, the figures for the IC50 (in assay [5] (Platelet); at 5HT2 [2]) were 1.8 µM and 0.007 µM, respectively. Further, the “Phenylephrine-Induced Pressor Response ED50” value in assay [1] was over 10 mg/kg. Further, the “Inhibit. of 5-HTP-Head Twitch ED50” value in the assay on serotonin receptors is 1.78 mg/kg, p.o. For the same compound, the 50% effective dose (ED50) at 5HT2 [3] worked out at 0.017 mg/kg.

For the compound `O=c1[nH]c2cocc2c(=O)n1CCN1CCC(=C(c2ccc(F)cc2)c2ccc(F)cc2)CC1` [Example 9, 3-[2-[4-[Bis(4-fluorophenyl)methylene]piperidin-1-yl]ethyl]furo[3,4-d]pyrimidine-2,4-dione], at 5HT1A receptor (setting [6]), the inhibition at 1 µM came to 12%. Also, the IC (10-fold shift) in assay [4] (Oryctolagus cuniculus, 10 min) worked out at 0.01 µM. Further, the IC50 amounted to 6.25 µM in assay [5] (Platelet) and 0.0042 µM on 5HT2 [2]. Besides, in assay [1], the “Phenylephrine-Induced Pressor Response ED50” value is recorded as over 10 mg/kg. Further, the “Inhibit. of 5-HTP-Head Twitch (result in words)” value in the assay with serotonin receptors (@ 10 (mg/kg, p.o.)) is “Inact”. Moreover, the median effective dose (ED50) on 5HT2 [3] came to 0.02 mg/kg.

For the compound `O=C(c1ccc(F)cc1)C1CCN(CCn2c(=O)[nH]c3cscc3c2=O)CC1` [Example 10, 3-[2-[4-(4-Fluorobenzoyl)piperidin-1-yl]ethyl]thieno[3,4-d]pyrimidine-2,4-dione], the IC50 worked out at 12 µM at 5HT1A receptor (rat frontal cortex membranes, pH 7.4, read-out: Brain 5-HT1 Receptor IC50); 0.02 µM in assay [5] (Platelet); 0.00033 µM on 5HT2 [2]. Further, the IC (10-fold shift) in assay [4] (Oryctolagus cuniculus, 10 min) was 0.00524 µM. In addition, the “Phenylephrine-Induced Pressor Response ED50” value in assay [1] is given as under 10 mg/kg. Also, in the assay on serotonin receptors, the “Inhibit. of 5-HTP-Head Twitch ED50” value is on record as 0.63 mg/kg, p.o. The median effective dose (ED50) at 5HT2 [3] was found to be 0.888 mg/kg.

Take `CC(=O)n1c(=O)n(CCN2CCC(C(=O)c3ccc(F)cc3)CC2)c(=O)c2cscc21` [Example 11, 1-Acetyl-3-[2-[4-(4-fluorobenzoyl)piperidin-1-yl]ethyl]thieno[3,4-d]pyrimidine-2,4-dione]: the inhibition at 1 µM at 5HT1A receptor (setting [6]) was found to be 0%. Further, the IC50 in assay [5] (Platelet) was determined as 0.09 µM; on 5HT2 [2] it was 0.0125 µM. The “Phenylephrine-Induced Pressor Response ED50” value in assay [1] is 10.0 mg/kg. Further, the median effective dose (ED50) on 5HT2 [3] stood at 0.029 mg/kg.

In the case of `Cn1c(=O)n(CCN2CCC(C(=O)c3ccc(F)cc3)CC2)c(=O)c2cscc21` [Example 14, 3-[2-[4-(4-Fluorobenzoyl)piperidin-1-yl]ethyl]-1-methylthieno[3,4-d]pyrimidine-2,4-dione], the inhibition at 1 µM at 5HT1A receptor (setting [6]) is 31%. Also, the half-maximal inhibitory concentration (IC50) in assay [5] (Platelet) turned out to be 0.04 µM; on 5HT2 [2], 0.007 µM. For the same compound, the “Phenylephrine-Induced Pressor Response ED50” value in assay [1] is on record as under 10 mg/kg. Moreover, the “Inhibit. of 5-HTP-Head Twitch ED50” value with serotonin receptors was 2.96 mg/kg, p.o. The median effective dose (ED50) at 5HT2 [3] amounted to 0.018 mg/kg.

For `Cc1nc2sccn2c(=O)c1CCN1CCC(=C(c2ccc(F)cc2)c2ccc(F)cc2)CC1` [Ritanserin, reference compound], the IC (10-fold shift) in assay [4] is 1.0 nM. The midpoint of inhibition in assay [5], the IC50, lay at 1.2 µM. In addition, the “Phenylephrine-Induced Pressor Response ED50” value in assay [1] worked out at 5.36 mg/kg. Further, the “Inhibit. of 5-HTP-Head Twitch ED50” value in the assay with serotonin receptors is given as 0.32 mg/kg, p.o. In addition, on 5HT2 [3] (anesthetized SHR, 5HT 100 μg/kg i.v., cumulative doses of antagonist), the “5-HT-Induced Pressor Response ED50” value amounted to 0.008 mg/kg.

These data come from patent publication US4835157A, “Thieno- and furopyrimidine-2,4-dione piperidine derivatives as serotonin antagonists and alpha adrenergic blocking agents” (Ortho Pharmaceutical Corporation, priority 1988, dated 1989).
